Patent US4654348A, “Pyrazolo[4,3-d]pyrimidine derivative, process for its production, antihyperlipidemic agent containing it, its intermediate, and process for the production of the intermediate” (Nissan Chemical Industries Ltd., priority 1984, dated 1987)

System: emulsion-induced hyperlipidemic rats
Assay: Test 1: antihyperlipidemic activity in emulsion-induced hyperlipidemic rats (serum Chol, HDL-Chol, liver weight)
Assay type: in vivo, male S.D. rats
Conditions: 3 days, vs control; for inhibition in vivo at 300 mg/kg / change in vivo at 300 mg/kg: Rattus norvegicus, po, 72 h, 300 mg/kg/day via stomach tube; for inhibition in vivo at 300 mg/kg: read-out: Reduction rate of serum Chol.; for Degree of hepatomegaly (change rate of the liver weight): liver weight per 100 g body weight, 300 mg/kg/day; for change in vivo at 300 mg/kg: read-out: Increase rate of serum HDL-Chol
Protocol: The antihyperlipidemic activity in emulsion-induced hyperlipidemic rats:
Male S.D. rats weighing 80-90 g (4 weeks old) were used. They were divided into groups of 5 to 6 rats each. The test compounds suspended in 0.5% CMC-Na(carboxymethyl cellulose sodium salt) were given to the rats in a daily dose of 4 ml/kg (i.e. 300 mg/kg of the test compounds) via stomach tube every 10:00 a.m. After 30 min., lipids emulsion having the following composition was orally given to the rats in an amount of 2.5 ml per rat.
Cholic acid sodium salt 10.0 g
During the experimental period of 3 days, the rats were fed on a standard commercial diet and water ad libitum. […] The total cholesterol and HDL cholesterol were measured.
The weight of the liver was measured. To the control group, only the aqueous CMC-Na solution and the lipids emulsion were given.
The fractionation of lipoproteins was conducted by a dextran sulfate-MgCl2 precipitation method.
Cholesterol in serum was measured by means of a cholesterol measuring kit (Cholesterol C-Test Wako, manufactured by Wako Junyaku Co., Ltd.), and cholesterol in HDL was measured by means of NC Hi-Set, manufactured by Nippon Chemiphar Co., Ltd.
Further, the reduction rate of Chol was calculated by the following equation. [formula] where A is the amount of serum Chol (mg/dl) of the control group, and B is the amount of serum Chol (mg/dl) of the group to which the therapeutic agent was administered.
Likewise, the increase rate of HDL-Chol was calculated by the following equation. [formula] where C is the amount of serum HDL-Chol (mg/dl) of the control group, and D is the amount of serum HDL-Chol (mg/dl) of the group to which the therapeutic agent was administered.
The degree of hepatomegaly (i.e. the change rate of the liver weight) was calculated by the following equation. [formula] where E is the liver weight (g) per 100 g of the body weight of the control group, and F is the liver weight (g) per 100 g of the body weight of the group to which the therapeutic agent was administered.

| Compound | inhibition in vivo at 300 mg/kg | Degree of hepatomegaly (change rate of the liver weight) | change in vivo at 300 mg/kg |
| --- | --- | --- | --- |
| CCCCCCC#CCCOc1c2ncnc(SCC(=O)OCC)c2nn1C [Example 74, 2-Methyl-3-(3-decynyloxy)-7-ethoxycarbonylmethylthio-pyrazolo[4,3-d]pyrimidine] | 16% | – | – |
| C=CCSc1ncnc2c(OCCCCCCCC/C=C\C/C=C\CCCCC)n(C)nc12 [Example 64, 2-Methyl-3-linoleyloxy-7-allylthio-pyrazolo[4,3-d]pyrimidine] | 12% | – | – |
| CCOC(=O)CSc1ncnc2c(OCCC(C)CCCC(C)CCCC(C)CCCC(C)C)n(C)nc12 (centres unmarked) [Example 40, 2-Methyl-3-(3,7,11,15-tetramethylhexadecyloxy)-7-ethoxycarbonylmethylthio-pyrazolo[4,3-d]pyrimidine] | 50% | – | – |
| CCCCCCCCCCCCCCCCOc1c2ncnc(SC3C(=O)OCC3C)c2nn1C (centres unmarked) [Example 25, 2-Methyl-3-n-hexadecyloxy-7-[4-(3-methyl-5-oxotetrahydrofuranyl)thio]-pyrazolo[4,3-d]pyrimidine] | 11% | – | – |
| CCCCCCCCCCCCCCCCOc1c2ncnc(SCCCC(=O)OCC)c2nn1C [Example 17, 2-Methyl-3-n-hexadecyloxy-7-(3-ethoxycarbonylpropylthio)-pyrazolo[4,3-d]pyrimidine] | 49% | +5% | – |
| CCOC(=O)CSc1ncnc2c(OCCOCc3ccc(C(C)(C)C)cc3)n(-c3ccccc3)nc12 [Example 48, 2-Phenyl-3-[2-(4-t-butylbenzyloxy)ethyloxy]-7-ethoxycarbonylmethylthio-pyrazolo[4,3-d]pyrimidine] | 34% | – | – |
| CCCCCCCCCCCCCCCCOc1c2ncnc(SCC(=O)OC(C)C)c2nn1C [Example 16, 2-Methyl-3-n-hexadecyloxy-7-isopropoxycarbonylmethylthio-pyrazolo[4,3-d]pyrimidine] | 26% | – | – |
| C=CCSc1ncnc2c(OCCCCCCCCCCCCCCCC)n(C)nc12 [Example 22] | 11% | – | – |
| CCOC(=O)CSc1ncnc2c(OCCCC(C)=O)n(C)nc12 [Example 46, 2-Methyl-3-(4-oxo-pentyloxy)-7-ethoxycarbonymethylthio-pyrazolo[4,3-d]pyrimidine] | 11% | – | – |
| CCCCCCCCCCCCCCCOc1c2ncnc(SCC(=O)OCC)c2nn1C [Example 4, 2-Methyl-3-n-pentadecyloxy-7-ethoxycarbonylmethylthio-pyrazolo[4,3-d]pyrimidine] | 48% | +2% | 20% |
| CCCCCCCCOc1c2ncnc(SC(C)(C)C(=O)OCC)c2nn1C [Example 27, 2-Methyl-3-n-octyloxy-7-(1-ethoxycarbonyl1-methyl-ethylthio)-pyrazolo[4,3-d]pyrimidine] | 16% | – | – |
| CCCCC/C=C\C/C=C\CCCCCCCCOc1c2ncnc(SCc3ccccc3)c2nn1C [Example 62, 2-Methyl-linoleyloxy-7-benzylthio-pyrazolo[4,3-d]pyrimidine] | 17% | – | – |
| CCCCCCCCCCCCCCCCOc1c2ncnc(SCc3ccccc3)c2nn1C [Example 19, 2-Methyl-3-n-hexadecyloxy-7-benzylthio-pyrazolo[4,3-d]pyrimidine] | 42% | +8% | 31% |
| CCCCCCCCCCCCCCCCOc1c2ncnc(SCCCCCC)c2nn1C [Example 23, 2-Methyl-3-n-hexadecyloxy-7-n-hexylthiopyrazolo[4,3-d]pyrimidine] | 39% | 0% | 30% |
| CCCCCCCCOc1c2ncnc(SCC(=O)OCC)c2nn1C [Example 42, 2-Methyl-3-n-octyloxy-7-ethoxycarbonylmethylthio-pyrazolo[4,3-d]pyrimidine] | 32% | – | – |
| CCCCCC/C=C/CCCCCCCCCCOc1c2ncnc(SCC(=O)OCC)c2nn1C [Example 72, 2-Methyl-3-vaccenyloxy-7-ethoxycarbonylmethylthio-pyrazolo[4,3-d]pyrimidine] | 58% | – | – |
